Measured values as given in patent US20160221977A1, “ANT[…]-LACTONES, AND METHODS OF IDENTIFICATION, MANUFACTURE AND USE” (priority 2014, published 2016).
In brackets after ≈: the same amount, converted by molar mass.

Experiments:
[1] = test system: S. coelicolor strain with the neo reporter gene; experiment: neo reporter strain assay (kanamycin resistance under PopR-dependent promoter); type: cell-based, S. coelicolor M145; conditions: DNAgar, 10 μg/mL kanamycin, optical density at 48 hrs
M. smegmatis MC2155 = experiment: toxicity to M. smegmatis (growth suppression, MIC); type: cell-based; conditions: for suppression of growth of M. smegmatis: M. smegmatis MC2155
Method: To determine if the results in the S. coelicolor based assay had relevance to Mycobacteria, all fourteen compounds were tested for toxicity to M. smegmatis MC2155, a surrogate of M. tuberculosis. […] Three of these inhibitory compounds were trans-disubstituted β-lactones with unbranched alkyl substituents on both the α- and β-carbons (β-lactones 2-4). For these molecules, there was a positive correlation between the length of the alkyl group on the α-carbon and antibacterial activity. […] The compounds were subsequently shown to be inhibitors of ClpP in vitro. In Mycobacteria, ClpP inhibition is associated with killing. Previous reports of ClpP inhibition generally described suppression of virulence in pathogenic bacteria (S. aureus and L. monocytogenes).

M. tuberculosis H37Rv = experiment: toxicity to M. tuberculosis (growth inhibition, MIC); type: cell-based

SMILES: C=CCCCCCCCC1C(=O)OC1CCC (stereo not drawn) [Compound 4]
- growth of reporter strain on media supplemented with kanamycin [1]: enabled the reporter strain to grow on media supplemented with kanamycin
- suppression of growth of M. smegmatis (M. smegmatis MC2155): suppressed the growth of M. smegmatis
- inhibition of growth of M. tuberculosis H37Rv (M. tuberculosis H37Rv): inhibited growth of M. tuberculosis H37Rv

SMILES: CCCCCCCC1C(=O)OC1CCC (stereo not drawn) [Compound 3]
- growth of reporter strain on media supplemented with kanamycin [1]: enabled the reporter strain to grow on media supplemented with kanamycin
- suppression of growth of M. smegmatis (M. smegmatis MC2155): suppressed the growth of M. smegmatis

SMILES: CCCC1OC(=O)C1Cc1ccccc1 (stereo not drawn) [Compound 7]
- growth of reporter strain on media supplemented with kanamycin [1]: enabled the reporter strain to grow on media supplemented with kanamycin
- suppression of growth of M. smegmatis (M. smegmatis MC2155): suppressed the growth of M. smegmatis
- MIC (M. smegmatis MC2155; Mycolicibacterium smegmatis, MC2155, M. smegmatis): 10 µg/mL (≈ 49 µM)
- inhibition of growth of M. tuberculosis H37Rv (M. tuberculosis H37Rv): inhibited growth of M. tuberculosis H37Rv
- MIC (M. tuberculosis H37Rv; Mycobacterium tuberculosis, H37RV, M. tuberculosis): 28 µg/mL (≈ 137 µM)

SMILES: CCCCCC1C(=O)OC1CCC (stereo not drawn) [Compound 2]
- growth of reporter strain on media supplemented with kanamycin [1]: enabled the reporter strain to grow on media supplemented with kanamycin
- suppression of growth of M. smegmatis (M. smegmatis MC2155): suppressed the growth of M. smegmatis
